Assay results from patent publication US10881749B2, “Probes and methods of imaging a bacterial infection” (The Board of Trustees of the Leland Stanford Junior …, priority 2015, dated 2021).

What was measured:
[1] = test system: E. coli; assay: Uptake of tracer in E. coli bacterial culture, with maltose competition; assay type: cell-based, Escherichia coli; conditions: for blocking of uptake in E. coli by co-incubation with cold maltose: co-incubation with 1 mM of cold maltose, p<0.0003; for accumulation (uptake) of tracer in E. coli over time: in vitro bacterial culture
Method: FIG. 2.1 is a graph showing uptake of 6″-[^18F]fluoromaltotriose in vitro in E coli at 15 minutes, 30 minutes, and 30 minutes with 1 mM of maltose.
6″-[^18F]-fluoromaltotriose (FIG. 1.1B) was synthesized. The uptake of 6″-[^18F]-fluoromaltotriose was evaluated in E. coli. […] The uptake in E. coli could also be blocked by a co-incubation with 1 mM of cold maltose (98% blocking, p<0.0003), the natural substrate of the transporter, confirming that the tracer was a substrate of the bacterial maltose transporter. 10^8 colony-forming units (CFU) of E. coli was then inoculated in the right thigh muscle of nude mice (n=4). 24 h later, 200 uCi of the 6″-[^18F]-fluoromaltotriose was administered via tail vein and dynamic PET/CT scans were obtained over the course of one hour. […] The route of clearance of the tracer is renal which makes it suitable for clinical translation.
In regard to FIG. 5.1A, 6″-[^18F]fluoromaltotriose was synthesized from precursor per-O-acetyl-6″-deoxy-6″-nosyl-maltotriose (1). Precursor 1 was prepared from per-O-acetyl-6″-hydroxymaltotriose via a nosylation reaction. This method utilizes the reaction between the leaving group nosylate in precursor 1 and anhydrous [^18F]KF/Kryptofix 2.2.2 in acetonitrile at 85° C. for 15 min to give per-O-acetyl-6″-deoxy-6″-[^18F]fluoromaltotriose (2). Basic hydrolysis of the acetyl protecting groups in 2 yielded 6″-[^18F]fluoromaltotriose (3). Also, cold 6″-fluoromaltotriose (for comparison with 6″ [^18F]fluoromatotriose) was prepared from per-O-acetyl-6-hydroxymaltotriose via a DAST reaction followed by a basic hydrolysis. Escherichia-coli uptake of 6″-[^18F]fluoromaltotriose was evaluated in bacterial culture.
We have successfully synthesized 6″-[^18F]fluoromaltotriose in 4-7% radiochemical yield (decay corrected) with 95% chemical and radio-chemical purities. Total synthesis time was 125 min. […] This observation is consistent with 6″-[^18F]fluoromaltotriose being recognized and transported by the bacteria in a manner similar to maltose.

[2] = test system: E. coli; assay: PET/CT imaging of E. coli infection in thigh muscle of nude mice; assay type: in vivo; conditions: for route of clearance: mice, intravenous (tail vein)
Method: FIGS. 1.1A-B show PET/CT scan of a mouse that had been injected with 200 μCi of 6″-[^18F]-fluoromaltotriose. The arrow indicates the site of infection.
6″-[^18F]-fluoromaltotriose (FIG. 1.1B) was synthesized. The uptake of 6″-[^18F]-fluoromaltotriose was evaluated in E. coli. […] The uptake in E. coli could also be blocked by a co-incubation with 1 mM of cold maltose (98% blocking, p<0.0003), the natural substrate of the transporter, confirming that the tracer was a substrate of the bacterial maltose transporter. 10^8 colony-forming units (CFU) of E. coli was then inoculated in the right thigh muscle of nude mice (n=4). […] The route of clearance of the tracer is renal which makes it suitable for clinical translation.

[3] = Biodistribution and pharmacokinetics in mice; assay type: in vivo; conditions: FIG. 3.1
Excerpt: FIG. 3.1 illustrates a graph comparing the biodistribution and pharmacokinetics of 6-fluoromaltose and 6″-fluoromaltotriose in mice.
FIG. 3.1, example 3, illustrates a graph comparing the biodistribution and pharmacokinetics of 6-fluoromaltose and 6″-Fluoromaltotriose in mice.

[4] = listed as 6″-[^18F]fluoromaltotriose

Q: For OC[C@H]1O[C@H](O[C@H]2[C@H](O)[C@@H](O)C(O)O[C@@H]2CO)[C@H](O)[C@@H](O)[C@@H]1O[C@H]1O[C@H](C[18F])[C@@H](O)[C@H](O)[C@H]1O (some centres unmarked) [6″-[^18F]-fluoromaltotriose, 6″-[^18F]fluoromaltotriose], which “blocking of uptake in E. coli by co-incubation with cold maltose” value [1] is on record?
A: Its value is 98%.

Q: And the “blocking of uptake in E. coli by co-incubation with cold maltose” value [1, 4]?
A: Its value is 90%.

Q: And the “accumulation (uptake) of tracer in E. coli over time” value [1]?
A: Its value is “increased over time”.

Q: And the “accumulation (uptake) of tracer in E. coli over time” value ([1]; listed as 6″-[^19F]fluoromaltotriose)?
A: Its value is “time dependent”.

Q: What about the “imaging of viable bacteria” value ([2]; 2 hours after implantation (FIG. 1.2)) of the same molecule?
A: Its value is “can image 10^8 CFU of viable bacteria”.

Q: And the “accumulation of tracer at the site of infection (PET/CT image)” value ([2]; PET/CT image at 1 hour, 24 h after inoculation)?
A: The value was “clearly accumulated in the infected leg”.

Q: And the “uptake in infected muscle relative to contra-lateral muscle” value ([2]; ROI analysis, PET/CT, p<0.05)?
A: The value was 3.1 fold.

Q: What about the route of clearance [2] of the same molecule?
A: The route of clearance was “renal”.

Q: And the route of clearance [2, 4]?
A: Its route of clearance is “predominantly renal clearance”.

Q: And the “average uptake in infected muscle (ROI analysis)” value ([2]; nude mice, 10^8 CFU E. coli in right thigh muscle, 24 h later 200 uCi via tail vein, PET/CT at 1 hour, mean±SD)?
A: The value was 4.7±1.3 % ID/g.

Q: And the “tissue uptake as compared to first generation tracer 6-fluoromaltose” value [3]?
A: Its value is “reduced blood, heart, liver, lung and muscle uptake”.
